Source: article PMC7555839 (Frontiers in Microbiology, 2020)

Assays:
[1] = tested on: Escherichia coli E2 (in house strain); assay: Broth microdilution (MIC/MBC); format: cell-based; conditions: E2, human clinical isolate
S. aureus USA300 JE2 = assay: Growth and viability assay; format: cell-based, Staphylococcus aureus; conditions: for Bacterial concentration after 24 h: 0.5 × MIC
Procedure: Growth and viability assays were performed according to a previously published method ([Thorsing et al., 2013]), with some modifications. In general, the assay was conducted over a 24 h period in a 37°C heating bath with shaking, using S. aureus USA300 JE2 as test strain. […] The culture was diluted 1:100 in BHI broth and grown to early exponential phase (OD600 0.20). […] This culture was grown to OD600 0.20 where sample zero was collected. […] 100 μl samples were serially diluted, spread on MHA plates, and incubated at 37°C for 20–24 h followed by successive counting.
Data were statically analyzed and visualized using RStudio v3.6.3 ([R Core Team, 2020]) and Microsoft excel. In general, the values reflecting the bacterial concentration (CFU/ml) were transformed into a logarithmic scale. In the growth and viability assay, the mean numbers of the bacterial concentrations from the triplicates were plotted against time and standard deviations shown as error bars. To investigate differences in bacterial concentration between treatment groups in the in vivo assay, multiple group comparisons were performed using ANOVA and P < 0.05 considered significant. The data was visualized in a standard box plot.

## CC(C)=CCCC(C)CC[N+](C)(C)CCCN1c2ccccc2Sc2ccccc21 (stereo not drawn) [JBC 1847]
[1]
  MBC: 8 µg/mL
  MIC: 8 µg/mL
S. aureus USA300 JE2; trial 1
  Bacterial concentration after 24 h: approximately 10^3 CFU/ml
S. aureus USA300 JE2; trial 2
  Bacterial concentration after 24 h: 0 CFU/ml
S. aureus USA300 JE2; trial 3, increase after 6 h
  Bacterial concentration after 24 h: reached the same level as the control curve
S. aureus USA300 JE2; 4 × MIC, all three replicates
  Viable bacterial cells after 30 min: no viable bacterial cells
S. aureus USA300 JE2; MIC concentration, trial 3
  Bacterial count after 24 h: approximately 10^3 CFU/ml
S. aureus USA300 JE2; MIC concentration, trials 1 and 2
  Bacterial concentration at 24 h: 0 CFU/ml
S. aureus USA300 JE2; Staphylococcus aureus, USA300, 100 ml BHI broth flasks, culture at OD600 0.20, 37°C shaking 20–22 h, read-out: MIC (visually determined)
  MIC: 4 µg/mL
